Source: patent US20090076006A1, “HSP90 INHIBITORS CONTAINING A ZINC BINDING MOIETY” (priority 2007, published 2009)

Tests used:
HSP90 = target: T1, HSP90 (Homo sapiens, UniProt P07900); assay: HSP90 assay (chaperone luciferase refolding / competition binding fluorescence polarization); settings: Table B does not say which of the two described
T1 construct: purchased Assay Design SPP-776F
Procedure: (a) An In Vitro Assay which Determines the Ability of a Test Compound to Inhibit Hsp90 Chaperone Activity.
The Hsp90 chaperone assay was performed to measure the ability of HSP90 protein to refold the heat-denatured luciferase protein. HSP90 was first incubated with different concentrations of test compounds in denaturation buffer (25 mM Tris, pH7.5, 8 mM MgSO4, 0.01% bovine gamma globulin and 10% glycerol) at room temperature for 30 min. Luciferase protein was added to denaturation mix and incubated at 50° C. for 8 min. The final concentration of HSP90 and luciferase in denaturation mixture were 0.375 μM and 0.125 μM respectively. A 5 μl sample of the denatured mix was diluted into 25 μl of renaturation buffer (25 mM Tris, pH7.5, 8 mM MgSO4, 0.01% bovine gamma globulin and 10% glycerol, 0.5 mM ATP, 2 mM DTT, 5 mM KCl, 0.3 μM HSP70 and 0.15 μM HSP40). The renaturation reaction was incubated at room temperature for 150 min, followed by dilution of 10 μl of the renatured sample into 90 μl of luciferin reagent (Luclite, PerkinElmer Life Science). The mixture was incubated at dark for 5 min before reading the luminescence signal on a TopCount plate reader (PerkinElmer Life Science).
(b) HSP90 Competition Binding (Fluorescence Polarization) Assay.
A fluorescein isothiocyanate (FITC) labeled GM was purchase from InvivoGen (ant-fgl-1). The interaction between HSP90 and labeled GM forms the basis for the fluorescence polarization assay. A free and fast-tumbling FITC labeled GM emits random light with respect to the plane of polarization plane of excited light, resulting in a lower polarization degree (mP) value. When GM is bound to HSP90, the complex tumble slower and the emitted light is polarized, resulting in a higher mP value. This competition binding assay was performed in 96-well plate and with each assay contained 10 and 50 nM of labeled GM and purified HSP90 protein (Assay Design, SPP-776F) respectively. The assay buffer contained 20 mM HEPES (pH 7.3), 50 mM KCl, 1 mM DTT, 50 mM MgCl2, 20 mM Na2MoO4, 0.01% NP40 with 0.1 mg/ml bovine gamma-globulin. Compounds are diluted in DMSO and added to the final assay before labeled GM with concentration range from 20 uM to 2 nM. mP value was determined by BioTek Synergy II with background subtraction after 24 hours of incubation at 4° C.

[1] = test system: HDAC (HeLa nuclear extract); assay: HDAC fluorimetric assay (inhibition of HDAC enzymatic activity); type: biochemical; settings: HDAC fluorimetric assay kit
Procedure: (c) An In Vitro Assay which Determines the Ability of a Test Compound to Inhibit HDAC Enzymatic Activity.
HDAC inhibitors were screened using an HDAC fluorimetric assay kit (AK-500, Biomol, Plymouth Meeting, Pa.). Test compounds were dissolved in dimethylsulphoxide (DMSO) to give a 20 mM working stock concentration. Fluorescence was measured on a WALLAC Victor 2 plate reader and reported as relative fluorescence units (RFU). Data were plotted using GraphPad Prism (v4.0a) and IC50's calculated using a sigmoidal dose response curve fitting algorithm. Each assay was setup as follows: Defrosted all kit components and kept on ice until use. Diluted HeLa nuclear extract 1:29 in Assay Buffer (50 mM Tris/Cl, pH 8.0, 137 mM NaCl, 2.7 mM KCl, 1 mM MgCl2). Prepared dilutions of Trichostatin A (TSA, positive control) and tested compounds in assay buffer (5× of final concentration). Diluted Fluor de Lys™ Substrate in assay buffer to 100 uM (50 fold=2× final). Diluted Fluor de Lys™ developer concentrate 20-fold (e.g. 50 μl plus 950 μl Assay Buffer) in cold assay buffer. Second, diluted the 0.2 mM Trichostatin A 100-fold in the 1× Developer (e.g. 10 μl in 1 ml; final Trichostatin A concentration in the 1× Developer=2 μM; final concentration after addition to HDAC/Substrate reaction=1 μM). Added Assay buffer, diluted trichostatin A or test inhibitor to appropriate wells of the microtiter plate. Added diluted HeLa extract or other HDAC sample to all wells except for negative controls. Allowed diluted Fluor de Lys™ Substrate and the samples in the microtiter plate to equilibrate to assay temperature (e.g. 25 or 37° C. Initiated HDAC reactions by adding diluted substrate (25 μl) to each well and mixing thoroughly. Allowed HDAC reactions to proceed for 1 hour and then stopped them by addition of Fluor de Lys™ Developer (50 μl). Incubated plate at room temperature (25° C.) for 10-15 min. Read samples in a microtiter-plate reading fluorimeter capable of excitation at a wavelength in the range 350-380 nm and detection of emitted light in the range 440-460 nm.

| SMILES | melting point | IC50 (HSP90) | IC50 [1] |
| --- | --- | --- | --- |
| CCNC(=O)c1noc(-c2cc(C(C)C)c(O)cc2O)c1-c1ccc(CNCCCCCCC(=O)NO)cc1 [Compound 23, 5-(2,4-dihydroxy-5-isopropylphenyl)-N-ethyl-4-(4-((7-(hydroxyamino)-7-oxoheptylamino)methyl)phenyl)isoxazole-3-carboxamide] | 126 to 128 °C | ≤ 100 nM | 100 to 1000 nM |
| CC(C)c1cc(-c2onc(C(=O)NCCCCCC(=O)NO)c2-c2ccc(CN3CCOCC3)cc2)c(O)cc1O [Compound 27, 5-(2,4-Dihydroxy-5-isopropylphenyl)-N-(6-(hydroxyamino)-6-oxohexyl)-4-(4-(morpholinomethyl)phenyl)isoxazole-3-carboxamide] | 164 to 166 °C | ≤ 100 nM | 100 to 1000 nM |
| COc1ccc(-c2c(C(=O)N3CCN(c4ncc(C(=O)NO)cn4)CC3)noc2-c2cc(Cl)c(O)cc2O)cc1 [Compound 11, 2-(4-(5-(5-chloro-2,4-dihydroxyphenyl)-4-(4-methoxyphenyl)isoxazole-3-carbonyl)piperazin-1-yl)-N-hydroxypyrimidine-5-carboxamide] | 186 to 190 °C | 100 to 1000 nM | ≤ 100 nM |
| CCNC(=O)c1noc(-c2cc(C(C)C)c(O)cc2O)c1-c1ccc(CNCCC(=O)NO)cc1 [Compound 15, 5-(2,4-dihydroxy-5-isopropylphenyl)-N-ethyl-4-(4-((3-(hydroxyamino)-3-oxopro-pylamino)methyl)phenyl)isoxazole-3-carboxamide] | 146 to 148 °C | ≤ 100 nM | 1000 to 10000 nM |
| CCNC(=O)c1noc(-c2cc(C(C)C)c(O)cc2O)c1-c1ccc(CN(C)CCCCCC(=O)NO)cc1 [Compound 22, 5-(2,4-Dihydroxy-5-isopropylphenyl)-N-ethyl-4-(4-(((6-(hydroxyamino)-6-oxohexyl)(methyl)amino)methyl)phenyl)isoxazole-3-carboxamide] | 113 to 115 °C | ≤ 100 nM | 1000 to 10000 nM |

Next, values leading:

| melting point | IC50 (HSP90) | IC50 [1] | SMILES |
| --- | --- | --- | --- |
| 148 to 151 °C | 100 to 1000 nM | ≤ 100 nM | COc1ccc(-c2c(C(=O)NCC3CCN(c4ncc(C(=O)NO)cn4)CC3)noc2-c2cc(Cl)c(O)cc2O)cc1 [Compound 13, 5-(5-Chloro-2,4-dihydroxyphenyl)-N-((1-(5-(hydroxycarbamoyl)pyrimidin-2-yl)piperidin-4-yl)methyl)-4-(4-methoxyphenyl)isoxazole-3-carboxamide] |
| 117 to 119 °C | ≤ 100 nM | 100 to 1000 nM | CC(C)c1cc(-c2onc(C(=O)NCCCCCCCC(=O)NO)c2-c2ccc(CN3CCOCC3)cc2)c(O)cc1O [Compound 29, 5-(2,4-Dihydroxy-5-isopropylphenyl)-N-(8-(hydroxyamino)-8-oxooctyl)-4-(4-(morpholinomethyl)phenyl)isoxazole-3-carboxamide] |
| 134 to 135 °C | ≤ 100 nM | 1000 to 10000 nM | CCNC(=O)c1noc(-c2cc(C(C)C)c(O)cc2O)c1-c1ccc(CNCCCCCC(=O)NO)cc1 [Compound 21, 5-(2,4-Dihydroxy-5-isopropylphenyl)-N-ethyl-4-(4-((6-(hydroxyamino)-6-oxohexylamino)methyl)phenyl)isoxazole-3-carboxamide] |
| 132 to 134 °C | ≤ 100 nM | ≥ 10000 nM | CCNC(=O)c1noc(-c2cc(C(C)C)c(O)cc2O)c1-c1ccc(CN(C)CCCC(=O)NO)cc1 [Compound 18, 5-(2,4-dihydroxy-5-isopropylphenyl)-N-ethyl-4-(4-(((4-(hydroxyamino)-4-oxobutyl)(methyl)amino)methyl)phenyl)isoxazole-3-carboxamide] |
| 109 to 111 °C | ≤ 100 nM | ≤ 100 nM | CC(C)c1cc(-c2onc(C(=O)NCCCCCCC(=O)NO)c2-c2ccc(CN3CCOCC3)cc2)c(O)cc1O [Compound 28, 5-(2,4-Dihydroxy-5-isopropylphenyl)-N-(7-(hydroxyamino)-7-oxoheptyl)-4-(4-(morpholinomethyl)phenyl)isoxazole-3-carboxamide] |
